Test results as given in patent US5006560A, “Use of GABA-B selective agonists as anti-tussive agents” (Schering Corporation, priority 1989, dated 1991).

Columns and labels:
[1] = test system: citric acid-induced cough; test: Citric acid-induced cough in guinea pigs; type: in vivo, guinea pig; details: for ED50: Cavia porcellus, sc, citric acid (0.55M) aerosol, guinea pigs, subcutaneous, read-out: ED50, reduction of cough frequency
Protocol: (§1) Unanesthetized male Dunkin Hartley guinea pigs (250-600 g) are placed into transparent plexiglas chambers and exposed to aerosols of capsaicin (300 μM), citric acid (0.55M), or their vehicles at an airflow of 4 L/min. Citric acid is dissolved in 0.9% saline vehicle and capsaicin is dissolved in 10% ethanol, 90% saline vehicle. The volume of solution aerosolized every minute is approximately 0.4 ml. The animals are first exposed to a vehicle aerosol for 4 minutes and then are exposed to citric acid or capsaicin aerosol for an additional 4 minutes. Coughing is detected by a microphone that is placed in the chamber and connected to an audio monitor and chart recorder. Coughs produced deflections on the chart paper which are later counted to determine a cough frequency. Test compounds are administered subcutaneously prior to exposure to citric acid or capsaicin. […] All statistics are expressed relative to control values (unpaired t-test). The results are shown in FIGS. 1A, 1B, 1C and 1D and are discussed below.
(§2) In FIGS. 1C and 1D, 3-APPA or vehicle was administered 45 minutes prior to data collection.
(§3) Guinea pigs were exposed to citric acid at a concentration of 0.55M. This dose of citric acid produced cough frequencies of 10-13 per exposure. The dose of capsaicin used was 0.3 mM and this dose produced cough frequencies of 7-9 per exposure. These doses produced consistent responses and were well tolerated by the animals. Larger doses (up to 2M for citric acid and 3 mM for capsaicin) produced distress to the animals. Lower doses (to 0.2M for citric acid and 0.03 mM for capsaicin) produced inconsistent cough responses.

[2] = test system: capsaicin-induced cough; test: Capsaicin-induced cough in guinea pigs; type: in vivo, guinea pig; details: for ED50: Cavia porcellus, sc, capsaicin (0.3 mM) aerosol, guinea pigs, subcutaneous, read-out: ED50, reduction of cough frequency
Protocol: as §1, §2, §3

[3] = test system: mechanically-induced cough; test: Mechanically-induced cough in cats (probing intrathoracic trachea); type: in vivo, cat; details: mechanical stimulus
Protocol: (§4) Cats (2.2-3.5 kg) are anesthetized with sodium pentobarbital (35 mg/kg, i.p.). Supplemental anesthetic (5 mg/kg, i.v.) is administered as required. Cannulas are placed in a femoral vein and artery for administering drugs and measuring arterial blood pressure, respectively. A tracheostomy is performed.
(§5) Electromyograms (EMGs) of respiratory muscle activity are recorded via bipolar silver wire electrodes placed in the diaphragm and rectus abdominus muscles by the technique of Basmajian and Stecko (1962). The EMGs are amplified (1000-2000×), filtered (500 Hz-10 KHz), monitored on an oscilloscope, and integrated with a "Leaky" RC circuit (100 ms time constant).
(§6) These stimuli only elicit coughs, apneas, apneusis, or augmented breaths (sighs).
(§7) Coughing is produced by coordinated bursts of activity in inspiratory and expiratory muscles. We define a cough as a burst of activity at least 50% greater than control levels in the diaphragm (inspiratory muscle) immediately followed by or coincident with a burst of activity in the rectus abdominus muscle (expiratory muscle). These criteria eliminate apneas or apneusis (no inspiratory or expiratory bursts) and augmented breaths (no expiratory muscle activity). Test compounds are administered intravenously to determine their effects on mechanically (probe) and electrically (SLN) induced cough. […]

[4] = test system: electrically-induced cough; test: Electrically-induced cough in cats (superior laryngeal nerve stimulation); type: in vivo, cat; details: electrical stimulus
Protocol: as §4, §5, §6, §7

[5] = 3-APPA 3 mg/kg i.v., baclofen 0.7 mg/kg i.v.

Row | SMILES | ED50 [1] [mg/kg] | ED50 [2] [mg/kg] | reduction in cough frequency ([1]; citric acid model, FIG. 1A, 1 hour after s.c. treatment) | reduction in cough frequency ([2]; capsaicin model, FIG. 1B, 1 hour after s.c. treatment) | inhibitory effect on coughing ([3]; cumulative i.v. doses, 5 minutes after injection, FIG. 3A) | inhibitory effect on coughing ([4]; cumulative i.v. doses, 5 minutes after injection, FIG. 3B) | effect of prior treatment with 3-APPA on antitussive effect of baclofen ([1]; citric acid model, 3-APPA 10 mg/kg s.c. before baclofen 1.0 mg/kg s.c., FIG. 1C) | effect of prior treatment with 3-APPA on antitussive effect of baclofen ([2]; capsaicin model, 3-APPA 10 mg/kg s.c. before baclofen 1.0 mg/kg s.c., FIG. 1D) | effect of 3-APPA on antitussive response to baclofen [3, 5] | effect of 3-APPA on antitussive response to baclofen [4, 5]
1 | COc1ccc2c3c1O[C@H]1[C@@H](O)C=C[C@H]4[C@@H](C2)N(C)CC[C@@]341 [Codeine] | 30 | 10 | – | – | – | – | – | – | – | –
2 | NCC(CC(=O)O)c1ccc(Cl)cc1 (racemic) [baclofen] | ~0.7 | ~0.7 | dose-dependent reduction in cough frequency | dose-dependent reduction in cough frequency | dose-dependent | dose-dependent | – | – | – | –
3 | NCCCP(=O)(O)O [3-APPA, 3-aminopropylphosphonic acid] | – | – | – | – | – | – | attenuated | attenuated | attenuated these responses | attenuated these responses
